Results from patent US5688913A, “CS-1 peptidomimetics, compositions and methods of using the same” (Cytel Corporation, priority 1995, dated 1997).
Like-named read-outs stand apart in the source and are kept apart here. Each block holds one compound with its values, some of them ahead of it. Square brackets hold non-standard residues; d marks the D form. Peptide text beside a SMILES is read from it. * marks the point of attachment. code Z = Europium label (diethylenetriaminepentaacetatoeuropium); NHOctadecyl = CCCCCCCCCCCCCCCCCCN*; NHPhenethyl = c1ccc(CCN*)cc1; Morpholide = C1CN(*)CCO1; PhAc = O=C(Cc1ccccc1)*; Ahx = NCCCCCC(=O)O; NHNH2 = NN*

What was measured:
[1] = test system: murine contact hypersensitivity; details: cited from earlier work
[2] = Elices et al. 1993; by proteolytic degradation; cited from earlier work
[3] = test system: New Zealand white rabbits; experiment: Treatment of asthmatic rabbits (house dust mite antigen challenge, crossover); format: in vivo, rabbit
Protocol: Six New Zealand white rabbits were immunized with house dust mite antigen from birth through four months of age. Upon immunization, three rabbits received a single nebulizer administration of the inhibitor peptide N-phenylacetyl-Leu-Asp-Phe-morpholinamide in aqueous 50 percent ethanol as diluent in an amount of 100 mg/kg, and the other three received diluent alone. All of the rabbits were challenged with house dust mite antigen about 15-30 minutes after administration of the peptide, with those animals not receiving peptide serving as controls.
Once immunized and challenged, the inflammatory state subsides to a basal level within about three weeks. The three animals used as controls were thereafter used as subjects for receipt of an inhibitor peptide, and the three rabbits that initially received the peptide can serve as controls.
Such a crossover study was done here. Thus, the three initial control rabbits were treated with the above inhibitor peptide in the above diluent at a time more than three weeks after the above study, and the three previous recipients of the peptide were administered the diluent alone. All six were than challenged again.
Initial pulmonary function, measured by dynamic compliance (Cdyn) and lung resistance (RL), and bronchoalveolar lavage (BAL) to obtain an effector cell count, here eosinophils, were conducted prior to administration of the peptide or diluent for both portions of this crossover study. Similar assays were then taken one-half hourly after challenge for six hours (early phase allergic reaction) and at 24 hours after challenge (late stage allergic reaction) for both portions of this study.
These studies were conducted by Dr. W. J. Metzger of East Carolina University, Greenville, N.C. as described by W. J. Metzger in CRC Handbook of Late Phase Reactions, W. Dorsch, ed., Chapter 35, CRC Press, Boca Raton, Fla. (1990) pages 347-362.
The results of this study for the pulmonary function parameters are shown in FIG. 4A and FIG. 4B, in which data for the challenged, inhibitor peptide-treated animals are shown as open circles and data for the challenged, untreated, control animals are shown in blackened circles.

VLA-4 [4] = target: T1, VLA-4 (Homo sapiens, UniProt P05556+P13612); experiment: cell-based; format: cell-based; set-up: host or cells: Jurkat (human T lymphoblastic line)
Procedure, shortened: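 51Cr-labelled Jurkat cells (human T lymphoblastic) were preincubated 30 min at about 22 °C with peptide, then allowed to bind 30 min at 37 °C to wells coated with CS-1 peptide or CS-1-OVA. After washing, bound cells were lysed with SDS and counted. IC50 is the peptide concentration halving binding, normalized to plate controls.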

[5] = Retention of potency in PBS containing 10 percent serum; details: PBS at 7.2-7.4 containing 10 percent mouse or human serum
BALB/c mice = experiment: Delayed type hypersensitivity in mice (adoptive transfer, oxazolone); format: in vivo, mouse; details: 6 mg/kg/day subcutaneously by implanted pump for 24 hours; FIG. 5
Protocol: An adoptive transfer delayed-type hypersensitivity murine model has been developed using splenic T cells primed to oxazolone. This model is described in Elices et al., Clin. Exp. Rheum., 11(Suppl. 8):577-580 (1993), whose procedures were followed here.
Thus, BALB/c mice were shaved on the belly and painted (50 μl on the belly and 5 μl on each paw) with three percent oxazolone in acetone/olive oil (4:1) at days zero and 1. At day 5, the mice were sacrificed, their spleens removed, and splenic T cells were obtained via nylon wool columns.
Normal saline or saline containing 25×10^6 /animal of the oxazolone-immune T cells were separately injected into naive mice. The mice were then challenged by painting 10 μl of 2 percent oxazolone onto one ear each. All procedures were carried out under sterile conditions and in endotoxing-free buffers.
Prior to challenge or saline injection, the mice were implanted with pumps that subcutaneously administered normal saline, normal saline containing the peptide N-phenylacetyl-Leu-Asp-Phe-D-Pro-NH2 or normal saline containing a peptide with a scrambled sequence continually at 6 mg/kg/day for a 24-hour time period. The swelling diameter at the site of challenge or saline injection was measured with a microcaliper 24 hours thereafter.

[6] = Toxicity study at 600 mg/kg/day; format: in vivo
Excerpt: The results of this study are shown in the graph of FIG. 5 for the saline and recited inhibitor peptide treatments.

New Zealand white rabbit = experiment: Rabbit cardiac allograft model; format: in vivo; details: 1 mg/kg/day injections, day 7
Protocol: New Zealand white rabbit SPF hearts were allografted into the necks of similar rabbits to assay a graft-vs-host immunorejection model and the affect of a contemplated peptide on that immunoinflammatory response. These studies were carried out by Dr. M. Rabinovitch of the Hospital for Sick Children, Toronto, Ontario, Canada.
Here, two rabbits were injected on day zero with 1 mg/kg/day of the inhibitor peptide N-phenylacetyl-Leu-Asp-Phe-D-Pro-NH2 in aqueous diluent. The two rabbits then each received a grafted heart, with the graft being made in the carotid artery to the aorta of the grafted heart, and the jugular vein to the pulmonary artery of the grafted heart. The rabbits thereafter received daily injections of the same dose of that peptide, and were sacrificed on day 7. Another animal that received normal saline injections in place of the peptide injections, also received a similarly allografted heart, and was similarly sacrificed at day 7.
The animals' blood vessels were thereafter examined histologically for evidence of arteriopathy, and particularly thickening of the intimal elastic lamina (IEL) layer of the coronary arteries. Thickening of the IEL is caused at least in part by emigration of effector cells bearing the CD2 marker such as T cells and NK cells. Clausell et al., Am. J. Path., 142(6):1772-1786 (1993). […]

SJL/J mice = experiment: Experimental autoimmune encephalomyelitis in mice; format: in vivo; details: 1 mg/mouse intraperitoneally at days 8 and 9; versus scrambled control peptide; FIG. 6
Excerpt: Experimental autoimmune encephalomyelitis (EAE) is a demyelinating disease of the central nervous system that can be induced in susceptible strains of mice and rats by immunization with myelin basic protein, proteolipid protein (PLP), or their immunodominant T cell determinants, or by injection of CD4-positive T cell clones specific for those determinants. EAE serves as an animal model of human multiple sclerosis. In both diseases, circulating leukocytes such as T cells and monocytes penetrate the blood/brain barrier and damage myelin, resulting in paralysis.
EAE was induced in female SJL/J mice (8 to 14 weeks old) by immunization on day zero with 50 μg of a peptide corresponding to positions 139-151 of PLP emulsified in a 1:1 mixture of PBS and complete Freund's adjuvant (CFA). […]
Mice were observed daily, beginning at day 8 for clinical signs of EAE, and disease was scored on a scale of 0-5 as: 0=no disease; 1=floppy tail; 2=moderate hind limb weakness; 3=paraparesis; 4=paraplegis with moderate forelimb weakness; 5=qualdriplegis or premoribund state. […]
Summed or averaged scores for clinical signs were plotted vs. time. The area under the resulting curves was calculated between day 8 and day 35 to calculate percentage inhibition of EAE by an inhibitor peptide. The percent inhibition was calculated as follows: […]

Water solubility = format: physicochemical
VLA-4 [7] = target: T1, VLA-4; details: cited from earlier work
[8] = 100 mg/kg single nebulizer administration, early phase 2-4 hours, versus challenged controls
[9] = 100 mg/kg single nebulizer administration, late phase 24 hours, versus challenged controls
[10] = normalized IC50 relative to standard peptide of SEQ ID NO:3 (=1), about one-tenth or less of the standard is assigned zero

T1 sequence (P13612 34-1032): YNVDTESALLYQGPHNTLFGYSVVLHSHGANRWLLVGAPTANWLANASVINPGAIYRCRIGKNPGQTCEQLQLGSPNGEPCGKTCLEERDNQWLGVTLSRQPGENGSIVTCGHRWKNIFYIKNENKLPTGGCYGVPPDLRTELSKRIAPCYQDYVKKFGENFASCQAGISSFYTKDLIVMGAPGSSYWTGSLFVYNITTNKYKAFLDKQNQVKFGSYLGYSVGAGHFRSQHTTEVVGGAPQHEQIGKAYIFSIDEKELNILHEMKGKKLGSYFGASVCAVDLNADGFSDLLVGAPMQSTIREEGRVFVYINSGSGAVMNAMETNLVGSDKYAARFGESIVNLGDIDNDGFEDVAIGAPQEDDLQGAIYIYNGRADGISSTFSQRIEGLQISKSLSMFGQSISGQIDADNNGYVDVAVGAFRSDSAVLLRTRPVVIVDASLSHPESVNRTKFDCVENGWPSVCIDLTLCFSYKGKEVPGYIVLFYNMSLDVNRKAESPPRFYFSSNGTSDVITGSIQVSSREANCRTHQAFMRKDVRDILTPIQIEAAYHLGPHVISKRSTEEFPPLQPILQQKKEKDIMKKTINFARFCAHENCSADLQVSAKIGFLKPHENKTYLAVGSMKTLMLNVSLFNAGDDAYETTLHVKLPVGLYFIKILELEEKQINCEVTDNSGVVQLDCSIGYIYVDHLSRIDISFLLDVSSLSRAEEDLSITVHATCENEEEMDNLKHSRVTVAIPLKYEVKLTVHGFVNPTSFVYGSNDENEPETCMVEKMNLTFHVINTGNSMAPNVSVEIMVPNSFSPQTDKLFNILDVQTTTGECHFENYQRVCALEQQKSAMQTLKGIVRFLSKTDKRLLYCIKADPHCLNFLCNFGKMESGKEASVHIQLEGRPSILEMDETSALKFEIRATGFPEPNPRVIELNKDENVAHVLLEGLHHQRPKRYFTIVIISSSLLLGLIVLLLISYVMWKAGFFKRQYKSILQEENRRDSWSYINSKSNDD
T1 sequence (P05556 21-798): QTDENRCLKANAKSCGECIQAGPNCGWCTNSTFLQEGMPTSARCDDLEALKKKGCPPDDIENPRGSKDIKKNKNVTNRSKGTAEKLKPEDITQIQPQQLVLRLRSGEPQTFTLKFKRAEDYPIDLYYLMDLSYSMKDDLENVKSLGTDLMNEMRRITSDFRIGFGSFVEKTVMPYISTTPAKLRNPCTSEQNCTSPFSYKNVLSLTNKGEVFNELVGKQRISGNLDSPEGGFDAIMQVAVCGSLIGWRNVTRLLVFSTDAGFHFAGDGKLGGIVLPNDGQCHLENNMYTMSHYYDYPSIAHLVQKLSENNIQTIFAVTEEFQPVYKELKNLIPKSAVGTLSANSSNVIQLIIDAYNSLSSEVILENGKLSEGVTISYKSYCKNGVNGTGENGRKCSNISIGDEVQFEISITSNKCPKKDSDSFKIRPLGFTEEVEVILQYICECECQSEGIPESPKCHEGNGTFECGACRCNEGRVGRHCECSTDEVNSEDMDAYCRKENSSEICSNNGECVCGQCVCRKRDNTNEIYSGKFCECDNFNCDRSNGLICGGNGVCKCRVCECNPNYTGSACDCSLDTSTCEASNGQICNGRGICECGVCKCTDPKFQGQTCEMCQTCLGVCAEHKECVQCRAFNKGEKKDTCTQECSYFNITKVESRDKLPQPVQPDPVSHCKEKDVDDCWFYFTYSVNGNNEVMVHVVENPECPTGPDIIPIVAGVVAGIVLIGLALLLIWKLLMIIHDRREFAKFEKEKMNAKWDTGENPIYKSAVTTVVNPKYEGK

Compound: CC[C@H](C)[C@H](NC(=O)[C@H](CCC(=O)O)NC(=O)[C@@H]1CCCN1C(=O)CNC(=O)[C@H](Cc1c[nH]cn1)NC(=O)[C@H](CC(C)C)NC(=O)[C@H](CC(N)=O)NC(=O)[C@@H]1CCCN1C(=O)[C@H](Cc1c[nH]cn1)NC(=O)[C@@H]1CCCN1C(=O)[C@H](CC(C)C)NC(=O)[C@@H](NC(=O)[C@@H](NC(=O)[C@H](CC(C)C)NC(=O)[C@H](CCC(N)=O)NC(=O)[C@@H]1CCCN1C(=O)[C@H](CC(C)C)NC(=O)[C@H](CCC(=O)O)NC(=O)[C@@H](N)CC(=O)O)C(C)C)[C@@H](C)O)C(=O)N[C@@H](CC(C)C)C(=O)N[C@@H](CC(=O)O)C(=O)N[C@H](C(=O)N1CCC[C@H]1C(=O)N[C@@H](CO)C(=O)N[C@H](C(=O)O)[C@@H](C)O)C(C)C [CS-1 peptide] (H-DELPQLVTLPHPNLHGPEILDVPST-OH)
- inhibition of contact hypersensitivity ([1]; Elices et al. 1993): unable to reproduce inhibition
- inhibition of recruitment of T lymphocytes to skin inflammatory sites ([1]; Ferguson et al. 1991): partially inhibited
- clearance from blood circulation [2]: rapidly cleared

Compound: CC(C)C[C@H](NC(=O)Cc1ccccc1)C(=O)N[C@@H](CC(=O)O)C(=O)N[C@@H](Cc1ccccc1)C(=O)N1CCOCC1 [X L D F Z phenylacetyl morpholinamide, N-phenylacetyl-Leu-Asp-Phe-morpholinamide] (PhAc-Leu-Asp-Phe-Morpholide)
- Cdyn, % Reduction, Early phase [3, 8]: 94.4%
- RL, % Reduction, Early phase [3, 8]: 80.1%
- Cdyn, % Reduction, Late phase [3, 9]: 86.6%
- RL, % Reduction, Late phase [3, 9]: 82.6%
- Cdyn value over six hours after challenge ([3]; FIG. 4A, 100 mg/kg nebulized): stayed at about the initial value
- RL values over six hours after challenge ([3]; FIG. 4B, 100 mg/kg nebulized): ≤ 200% of initial value
- IC50 (VLA-4 [4]; Jurkat cells / solid phase-bound CS-1, read-out: absolute IC50 value): 180 to 300 nM
- RELATIVE POTENCY (relative peptide inhibition of VLA-4 binding CS-1) (VLA-4 [4]; [10]): 844
- loss of potency after 24 hours [5]: no loss of potency

Compound: CC(C)C[C@H](NC(=O)Cc1ccccc1)C(=O)N[C@@H](CC(=O)O)C(=O)N[C@@H](Cc1ccccc1)C(=O)N1CCC[C@@H]1C(N)=O [X L D F p phenylacetyl amide, N-phenylacetyl-Leu-Asp-Phe-D-Pro-NH2] (PhAc-LDF[dP]-NH2)
- reduction of inflammation (ear swelling diameter at challenge site) (BALB/c mice): reduced this type of CS-1/VLA-4-mediated immunoinflammation
- toxicity [6]: no toxicity
- percentage of IEL thickening based on total coronary vessel area (lesion severity) (New Zealand white rabbit; 59 vessels of two rabbits, saline 35, basal about 15): about 18%
- vessels exhibiting IEL thickening (New Zealand white rabbit; 141 vessels of two rabbits, saline about 80, basal about 20): about 30%
- clinical signs of EAE (SJL/J mice): marked improvement in clinical signs
- IC50 (VLA-4 [4]): ~500 nM
- binding inhibition better than the standard 10-mer peptide of SEQ ID NO:3 (VLA-4 [4]): about 312 times
- RELATIVE POTENCY (relative peptide inhibition of VLA-4 binding CS-1) (VLA-4 [4]; [10]): 313
- loss of potency after 24 hours [5]: no loss of potency

Compound: CC(C)C[C@H](NC(=O)Cc1ccccc1)C(=O)N[C@@H](CC(=O)O)C(=O)N(Cc1ccccc1)Cc1ccccc1 [X L D Z phenylacetyl dibenzylamide]
- RELATIVE POTENCY (relative peptide inhibition of VLA-4 binding CS-1) (VLA-4 [4]; [10]): 0

Compound: CC(C)C[C@H](NC(=O)Cc1ccccc1)C(=O)N[C@@H](CC(=O)O)C(=O)NN [X L D Z phenylacetyl hydrazide] (PhAc-Leu-Asp-NHNH2)
- RELATIVE POTENCY (relative peptide inhibition of VLA-4 binding CS-1) (VLA-4 [4]; [10]): 1

Compound: CC(C)C[C@H](NC(=O)Cc1ccccc1)C(=O)N[C@@H](CC(=O)O)C(=O)NCCc1ccccc1 [X L D Z phenylacetyl phenethylamide] (PhAc-Leu-Asp-NHPhenethyl)
- RELATIVE POTENCY (relative peptide inhibition of VLA-4 binding CS-1) (VLA-4 [4]; [10]): 19

- RELATIVE POTENCY (relative peptide inhibition of VLA-4 binding CS-1) (VLA-4 [4]): 0
Compound: CC(C)C[C@H](NC(=O)[C@H](N)Cc1ccccc1)C(=O)N[C@@H](CC(=O)O)C(=O)N[C@H](C(=O)N1CCC[C@@H]1C(=O)O)C(C)C [f L D V p free amine free acid] (H-[dF]LDV[dP]-OH)

Compound: CCCCCCCCCCCCCCCCCCNC(=O)CCCCCNC(=O)[C@@H]1CCCN1C(=O)[C@H](Cc1ccccc1)NC(=O)[C@H](CC(=O)O)NC(=O)[C@H](CC(C)C)NC(=O)Cc1ccccc1 [phenylacetyl-Leu-Asp-Phe-Pro-NH(CH2)5 C(O)NHC18 H37] (PhAc-LDFP[Ahx]-NHOctadecyl)
- water solubility (Water solubility): not water-soluble
- RELATIVE POTENCY (relative peptide inhibition of VLA-4 binding CS-1) (VLA-4 [4]; [10]): 1

Compound: Leu-Asp-Val [LDV]
- affinity of VLA-4 lower than for the native CS-1 25-mer (VLA-4 [7]): at least two

- binding inhibition better than the standard 10-mer peptide of SEQ ID NO:3 (VLA-4 [4]): about 120 times
- RELATIVE POTENCY (relative peptide inhibition of VLA-4 binding CS-1) (VLA-4 [4]; [10]): 118
Compound: Z X F L D F p: X = ε-amidocaproyl, Z = Europium label (diethylenetriaminepentaacetatoeuropium), C-terminal amide ({code Z-ε‑amidocaproyl}-FLDF[dP]-NH2; also: europium chelate)
